In general, inhibition refers to the relative decrease from the control value, in per cent.

Assay type in all cases: in vivo
Series [1] has as its system rice (Oryza sativa var. Nihonbare). Nature of the series: Growth inhibition (phytotoxicity) of transplanted rice by compound A2 with or without compound D, application under submerged condition, visual rating 7 and 21 days after application. To be noted: Compound A2 60 g/ha + Compound D 600 g/ha, applied 5 days after implantation; for Growth inhibition rate (%) (average) 7 days: 7 days after application; for Growth inhibition rate (%) (average) 21 days: 21 days after application. An excerpt:
(§1) Growth inhibition rate (%)=0% (equivalent to the non-treated area) to 100% (complete kill)
Paddy field soil was put into a 1/500,000 hectare pot, harrowed and irrigated with a depth of 3 cm. On the next day, rice (Oryza sativa var. Nihonbare) at 2 leaf stage was implanted with a depth of 3 cm. A wettable powder of compound A2 and a wettable powder of compound D were, respectively, diluted with water and applied under submerged condition 5 days after implantation so that the active ingredients became the prescribed amounts, respectively. The state of growth of rice was visually observed 7 days and 21 days after application, and the growth inhibition rate (%) was evaluated in the same is manner as in the above Test Example 1.

Series [2] concerns barnyardgrass (Echinochloa oryzicola vasing). Nature of the series: Growth inhibition of barnyardgrass in paddy soil pots, foliar application with a small sprayer, visual rating and Colby expected value. The settings on record: Echinochloa oryzicola, 504 h, 3.0 to 3.3 leaf stage, 21 days after application, read-out: Growth inhibition rate (%) Observed.
Excerpt: (§2) When the herbicidal activity in a case where two active ingredients are combined, is larger than the simple sum of the respective herbicidal activities of the two active ingredients (the expected activity), it is called a synergistic effect. The activity expected by the combination of two active ingredients can be calculated as follows (Colby S. R., “Weed”, vol. 15, p. 20-22, 1967). E=p+q−(p×q÷100) where p: growth inhibition rate when treated with x (g/a) of herbicide X,
(§3) q: growth inhibition rate when treated with y (g/a) of herbicide Y,
(§4) E: growth inhibition rate expected when treated with x (g/a) of herbicide X and y (g/a) of herbicide Y.
(§5) Namely, when the actual growth inhibition rate (observed value) is larger than the growth inhibition rate by the above calculation (expected value), the activity by the combination can be regarded as showing a synergistic effect.
as §1
Paddy field soil was put into a 1/10,000 are pot, and seeds of barnyardgrass (Echinochloa oryzicola vasing) were sown and left to stand under an irrigated condition with a water depth of 3.5 cm. When barnyardgrass reached 3.0 to 3.3 leaf stage, a wettable powder of compound A2 and a water-based suspension of compound (B11.1) were, respectively, diluted with water in an amount of 1,000 liter/ha, followed by foliar application with a small sprayer. The state of growth was visually observed 21 days after application, and evaluation and calculation were carried out in the same manner as in the above Test Example 1.

The test system is the same in series [3]. Nature of the series: Growth inhibition of barnyardgrass in paddy soil pots, application under submerged condition, visual rating (observed value) and Colby expected value. The settings on record: Echinochloa oryzicola, soil, read-out: Growth inhibition rate (%) Observed. An outline of the steps:
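Barnyardgrass (Echinochloa oryzicola vasing) seeds were sown in paddy field soil in 1/10,000 are pots and kept irrigated at a water depth of 3.5 cm. Wettable powders of the active ingredients were diluted with water and applied under submerged conditions at the prescribed amounts. Growth was visually scored from 0% (as untreated) to 100% (complete kill), and expected values were calculated with Colby's formula.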

Series [4] deals with flatsedge (Cyperus serotinus). In words: Growth inhibition of flatsedge (planted tubers) in paddy soil pots, application under submerged condition, visual rating and Colby expected value. To be noted: Cyperus serotinus, soil, 720 h, 2.5 to 3.0 leaf stage, 30 days after application, Test Examples 46-60, read-out: Growth inhibition rate (%) Observed.
Excerpt: as §2, §3, §4, §5, §1
Paddy field soil was put into a 1/10,000 are pot, and tubers of flatsedge (Cyperus serotinus) were planted and left to stand under an irrigated condition with a water depth of 3.5 cm. When flatsedge reached 2.8 to 3.2 leaf stage, wettable powders of compound A2 and compound (B1.2) were, respectively, diluted with water and applied under submerged condition so that the active ingredients became the prescribed amounts, respectively. The state of growth was visually observed 29 days after application, and evaluation and calculation were carried out in the same manner as in the above Test Example 1.
Paddy field soil was put into a 1/3,000 are pot, and tubers of flatsedge (Cyperus serotinus) were planted and left to stand under an irrigated condition with a water depth of 3.5 cm. When flatsedge reached 4 leaf stage, a wettable powder of compound A2 and an emulsifiable concentrate of compound C4 were, respectively, diluted with water and applied under submerged condition so that the active ingredients became the prescribed amounts, respectively. The state of growth was visually observed 21 days after application, and the growth inhibition rate (%) evaluated in the same manner as in the above Test Example 1 (observed value) and the growth inhibition rate (%) calculated by the above-mentioned Colby method (expected value) are shown in Table 32.
Paddy field soil was put into a 1/10,000 are pot, and tubers of flatsedge (Cyperus serotinus) were planted and left to stand under an irrigated condition with a water depth of 3.5 cm. When flatsedge reached 2.5 to 3.0 leaf stage, wettable powders of compound A2, compound (D2.3) and compound (B4.1) were, respectively, diluted with water and applied under submerged condition so that the active ingredients became the prescribed amounts, respectively. The state of growth was visually observed 30 days after application, and evaluated in the same manner as in the above Test Example 1.
Paddy field soil was put into a 1/10,000 are pot, and tubers of flatsedge (Cyperus serotinus) were planted and left to stand under an irrigated condition with a water depth of 3.5 cm. When flatsedge reached 2.5 to 3.0 leaf stage, wettable powders of compound A2, compound (D2.3) and compound (B6.1) were, respectively, diluted with water and applied under submerged condition so that the active ingredients became the prescribed amounts, respectively. The state of growth was visually observed 30 days after application, and evaluated in the same manner as in the above Test Example 1.
Paddy field soil was put into a 1/10,000 are pot, and tubers of flatsedge (Cyperus serotinus) were planted and left to stand under an irrigated condition with a water depth of 3.5 cm. When flatsedge reached 2.5 to 3.0 leaf stage, wettable powders of compound A2, compound (D2.3) and compound (B8.1) were, respectively, diluted with water and applied under submerged condition so that the active ingredients became the prescribed amounts, respectively. […]

Series [5] deals with Japanese bulrush (Scirpus juncoides). Nature of the series: Growth inhibition of Japanese bulrush in paddy soil pots, application under submerged condition, visual rating and Colby expected value. The settings on record: Schoenoplectiella juncoides, soil, 456 h, 3 leaf stage, 19 days after application, Test Example 37, read-out: Growth inhibition rate (%) Observed.
Excerpt: as §2, §3, §4, §5, §1
(§6) Paddy field soil was put into a 1/10,000 are pot, and seeds of Japanese bulrush (Scirpus juncoides) were sown and left to stand under an irrigated condition with a water depth of 3.5 cm. When Japanese bulrush reached 2.3 to 2.6 leaf stage, a wettable powder of compound A2 and granules of compound (B7.1) were, respectively, diluted with water and applied under submerged condition so that the active ingredients became the prescribed amounts, respectively. The state of growth was visually observed 10 days after application, and evaluation and calculation were carried out in the same manner as in the above Test Example 1.
as §6, with “an emulsifiable concentrate” for “granules”, “(B3.1)” for “(B7.1)”
Paddy field soil was put into a 1/10,000 are pot, and seeds of Japanese bulrush (Scirpus juncoides) were sown and left to stand under an irrigated condition with a water depth of 3.5 cm. When Japanese bulrush reached 2 leaf stage, wettable powders of compound A2, C2 and C4 and granules of compound C6 were, respectively, diluted with water and applied under submerged condition so that the active ingredients became the prescribed amounts, respectively.
Paddy field soil was put into a 1/10,000 are pot, and seeds of Japanese bulrush (Scirpus juncoides) were sown and left to stand under an irrigated condition with a water depth of 3.5 cm. When Japanese bulrush reached 2 leaf stage, wettable powders of compound A2, C2 and C4 and granules of compound C6 were, respectively, diluted with water and applied under submerged condition so that the active ingredients became the prescribed amounts, respectively. The state of growth was visually observed 19 days after application, and the growth inhibition rate (%) evaluated in the same manner as in the above Test Example 1 (observed value) and the growth inhibition rate (%) calculated by the above-mentioned Colby method (expected value) are shown in Tables 36, 37 and 38.
Paddy field soil was put into a 1/10,000 are pot, and seeds of Japanese bulrush (Scirpus juncoides) were sown and left to stand under an irrigated condition with a water depth of 3.5 cm. When Japanese bulrush reached 3 leaf stage, wettable powders of compound A2 and compound (D2.2) were, respectively, diluted with water and applied under submerged condition so that the active ingredients became the prescribed amounts, respectively. […]

Like-named read-outs stand apart in the source and are kept apart here.

Regarding `CC(C)(SC(=O)N1CCCCC1)c1ccccc1` [(D2.1), S-1-methyl-1-phenylethyl piperidine-1-carbothioate], in series [1], the “Growth inhibition rate (%) (average) 7 days” value is 5% and the “Growth inhibition rate (%) (average) 21 days” value stood at 10%.

On to `COc1cnc(OC)n2nc(NS(=O)(=O)c3c(OCC(F)F)cccc3C(F)(F)F)nc12` [Compound (B11.1), penoxsulam], for which, in series [2] (0.047 g/a), the inhibition at 4.7 g/ha was 10%. In addition, the inhibition at 9.4 g/ha in series [2] (0.094 g/a) stood at 47%. Also, the inhibition at 18.8 g/ha in series [2] (0.188 g/a) came to 80%.

With `Cc1ccc(NC(=O)NC(C)(C)c2ccccc2)cc1` [Compound (D1.1), 1-(1-methyl-1-phenylethyl)-3-p-tolylurea], in series [1], the “Growth inhibition rate (%) (average) 7 days” value is 2% and the “Growth inhibition rate (%) (average) 21 days” value was 10%. In series [3] (528 h, 563 g/ha, 3 leaf stage, 22 days after application, Test Example 36), the inhibition at 563 g/ha came to 0%. Further, in series [3] (528 h, 1,125 g/ha, 3 leaf stage, 22 days after application, Test Example 36), the inhibition at 1125 g/ha is 10%. In series [4] (15 g/a), the inhibition at 1500 g/ha worked out at 20%.

Take `CCSC(=O)N1CCCCCC1` [Compound (D2.2), S-ethyl azepane-1-carbothioate]: in series [1], the “Growth inhibition rate (%) (average) 7 days” value is recorded as 7% and the “Growth inhibition rate (%) (average) 21 days” value came out at 17%. Moreover, the inhibition at 900 g/ha in series [5] (900 g/ha) amounted to 60%. Further, the inhibition at 1800 g/ha in series [5] (1,800 g/ha) turned out to be 60%.

`COc1cccc(N(C)C(=S)Oc2cccc(C(C)(C)C)c2)n1` [Compound (D2.3), O-3-tert-butylphenyl 6-methoxy-2-pyridyl(methyl)thiocarbamate]: in series [1], the “Growth inhibition rate (%) (average) 7 days” value is 3%. For the same compound, in series [1], the “Growth inhibition rate (%) (average) 21 days” value worked out at 5%. The inhibition at 188 g/ha was 0% in series [3] (504 h, 1.88 g/a, 2.8 to 3.2 leaf stage, 21 days after application, Test Examples 39-43) and 3% in series [3] (528 h, 188 g/ha, 3 leaf stage, 22 days after application, Test Example 38). For the same compound, the inhibition at 375 g/ha in series [3] (504 h, 3.75 g/a, 2.8 to 3.2 leaf stage, 21 days after application, Test Examples 39-43) turned out to be 0%; in series [3] (528 h, 375 g/ha, 3 leaf stage, 22 days after application, Test Example 38) it was 7%. In addition, the inhibition at 600 g/ha in series [4] (6 g/a) is 20%.
